# Experimental data as given in paper PMC4051426 (Biochemistry, 2014).
# Target: triosephosphate isomerase from chicken muscle (cTIM), loop 6 replacement mutant (L6RM) (Gallus gallus, UniProt P00940, V167P/W168E)
# Experiment: steady-state kinetics of isomerization
# Type: biochemical
# Sequence of triosephosphate isomerase from chicken muscle (cTIM), loop 6 replacement mutant (L6RM) (P00940 2-248 V167P/W168E): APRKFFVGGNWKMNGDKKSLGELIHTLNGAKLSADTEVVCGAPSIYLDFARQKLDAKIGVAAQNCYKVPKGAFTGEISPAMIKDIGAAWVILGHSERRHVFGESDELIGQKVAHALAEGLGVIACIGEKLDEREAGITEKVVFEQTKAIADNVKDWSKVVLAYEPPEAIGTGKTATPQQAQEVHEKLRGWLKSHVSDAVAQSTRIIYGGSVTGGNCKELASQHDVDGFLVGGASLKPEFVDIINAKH
structure (smiles),measurement,value
"O=C[C@H](O)COP(=O)(O)O [GAP, (R)-glyceraldehyde 3-phosphate]",kcat/Km (M^-1 s^-1),470 M^–1 s^–1 (kcat/Km)
